# Source: PMC6522510 (Nature Communications, 2019)
# Where two headings read alike, the source gives them in different places.
# Columns and labels:
# Assay in all cases: Secondary dose-response HTS, Cell Titer Glo; call rule not given here
# Type in all cases: cell-based, human
# U937 = test system: U937
# MV4-11 = test system: MV4-11
# CHRF288-11 = test system: CHRF288-11
# MOLM-13 = test system: MOLM-13
# CMK = settings: CMK
# ML2 = test system: ML2
# M07e = test system: M07e
# CMS = test system: CMS
# [1] = secondary high-throughput screen, U937
# [2] = secondary high-throughput screen, MV4-11
# [3] = secondary high-throughput screen, CHRF288-11
# [4] = secondary high-throughput screen, MOLM-13
# [5] = secondary high-throughput screen
# [6] = secondary high-throughput screen, ML-2
# [7] = Homo sapiens, M-07e, secondary high-throughput screen, M07e, read-out: average effective concentration, M07e
# [8] = secondary high-throughput screen, CMS
# [9] = Homo sapiens, U-937, secondary high-throughput screen, U937, read-out: average effective concentration, U937
# [10] = Homo sapiens, secondary high-throughput screen, MV4-11, read-out: average effective concentration, MV4-11
# [11] = Homo sapiens, HTS, secondary high-throughput screen, CHRF288-11, read-out: average effective concentration, CHRF288-11
# [12] = Homo sapiens, secondary high-throughput screen, MOLM-13, read-out: average effective concentration, MOLM-13
# [13] = Homo sapiens, secondary high-throughput screen, read-out: average effective concentration, CMK
# [14] = Homo sapiens, secondary high-throughput screen, ML-2, read-out: average effective concentration, ML-2
# [15] = Homo sapiens, HTS, secondary high-throughput screen, CMS, read-out: average effective concentration, CMS
# [16] = Homo sapiens, U-937, secondary HTS, 72 h, average of triplicate, read-out: EC50 U937
# [17] = Homo sapiens, MV4-11, secondary HTS, 72 h, average of triplicate, read-out: EC50 MV4-11
# [18] = Homo sapiens, secondary HTS, 72 h, average of triplicate, read-out: EC50 CHRF288-11
# [19] = Homo sapiens, MOLM-13, secondary HTS, 72 h, average of triplicate, read-out: EC50 MOLM-13
# [20] = Homo sapiens, secondary HTS, 72 h, average of triplicate, read-out: EC50 CMK
# [21] = Homo sapiens, ML-2, secondary HTS, 72 h, average of triplicate, read-out: EC50 ML2
# [22] = Homo sapiens, M-07e, secondary HTS, 72 h, average of triplicate, read-out: EC50 M07e
# [23] = Homo sapiens, secondary HTS, 72 h, average of triplicate, read-out: EC50 CMS
# [24] = secondary high-throughput screen, M07e
# [25] = secondary high-throughput screen, U937, read-out: average effective concentration, U937
# [26] = secondary high-throughput screen, MV4-11, read-out: average effective concentration, MV4-11
# [27] = secondary high-throughput screen, MOLM-13, read-out: average effective concentration, MOLM-13
# [28] = Homo sapiens, read-out: average effective concentration, CMK
# [29] = Homo sapiens, HTS, read-out: average effective concentration, CMS
EC50 (U937; [9]),SMILES,"average effective concentration, U937 (U937; [1])","average effective concentration, MV4-11 (MV4-11; [2])","average effective concentration, CHRF288-11 (CHRF288-11; [3])","average effective concentration, MOLM-13 (MOLM-13; [4])","average effective concentration, CMK (CMK; [5])","average effective concentration, ML-2 (ML2; [6])",EC50 (M07e; [7]),"average effective concentration, CMS (CMS; [8])",EC50 (CHRF288-11; [11]),EC50 (ML2; [14]),"average effective concentration, M07e (M07e; [24])",other results
,CC12CC3CC(C)(C1)CC(N)(C3)C2 [MEMANTINE],Inactive,Inactive,Inactive,Inactive,Inactive,Inactive,> 10000 nM,Inactive,,,,
10000 nM,CN(C)c1ccc2nc3ccc(=[N+](C)C)cc-3sc2c1 [METHYLENE BLUE],,,,,,,> 10000 nM,,6200 nM,5900 nM,,EC50 (MV4-11; [10]): 1300 nM; EC50 (MOLM-13; [12]): 2000 nM; EC50 (CMK; [13]): 3400 nM; EC50 (CMS; [15]): > 10000 nM
,"O=C1c2c(O)ccc(O)c2C(=O)c2c(NCCNCCO)ccc(NCCNCCO)c21 [Mitoxantrone, reference compound]",,,,,,,,,,,,EC50 (U937; [16]): 30 nM; EC50 (MV4-11; [17]): 1 nM; EC50 (CHRF288-11; [18]): 20 nM; EC50 (MOLM-13; [19]): 10 nM; EC50 (CMK; [20]): 40 nM; EC50 (ML2; [21]): 240 nM; EC50 (M07e; [22]): 30 nM; EC50 (CMS; [23]): 80 nM
,Cc1ccc(S(=O)(=O)n2c(N)nc3ccccc32)cc1 [NODINITIB-1],Inactive,Inactive,Inactive,Inactive,Inactive,Inactive,,Inactive,,,Inactive,
,O=c1cc(N2CCOCC2)oc2c1ccc1ccccc12 [NU 7026],Inactive,Inactive,Inactive,Inactive,Inactive,Inactive,,Inactive,,,Inactive,
,CC(C)(CCc1ccccc1)C(=O)Nc1ccc(C(=O)NO)cc1 [OSU-HDAC-44],,,,,Inactive,,,,,,,"EC50 (U937; [25]): 490 nM; EC50 (MV4-11; [26]): 290 nM; EC50 (CHRF288-11; secondary high-throughput screen, CHRF288-11, read-out: average effective concentration, CHRF288-11): 1500 nM; EC50 (MOLM-13; [27]): 1300 nM; EC50 (ML2; secondary high-throughput screen, ML-2, read-out: average effective concentration, ML-2): 1400 nM; EC50 (M07e; secondary high-throughput screen, M07e, read-out: average effective concentration, M07e): 350 nM; EC50 (CMS; secondary high-throughput screen, CMS, read-out: average effective concentration, CMS): 480 nM"
11 nM,"COC[C@H](NC(=O)c1cnc(C)s1)C(=O)N[C@@H](COC)C(=O)N[C@@H](Cc1ccccc1)C(=O)[C@@]1(C)CO1 [Oprozomib, reference compound]",,,,,,,,,25 nM,5 nM,,EC50 (U937; [16]): 10 nM; EC50 (MV4-11; [17]): 10 nM; EC50 (CHRF288-11; [18]): 30 nM; EC50 (MOLM-13; [19]): 10 nM; EC50 (CMK; [20]): 10 nM; EC50 (CMK; [13]): 7.6 nM; EC50 (ML2; [21]): 10 nM; EC50 (M07e; [22]): 10 nM; EC50 (CMS; [23]): 1 nM
,COc1cccc(-c2cc(=O)c3ccccc3o2)c1N [PD 98059],Inactive,Inactive,Inactive,Inactive,Inactive,Inactive,,Inactive,,,Inactive,
,Cc1cc(I)ccc1Nc1c(C(=O)NOCC2CC2)cc(F)c(F)c1F [PD 198306],Inactive,Inactive,Inactive,Inactive,Inactive,Inactive,,Inactive,,,Inactive,
100 nM,Cn1cc(-c2[nH]c3cc(NC(=O)[C@H](N)C4CCCCC4)cc4c3c2C=NNC4=O)cn1 [PF-477736],,,,,,,240 nM,,1200 nM,28 nM,,EC50 (MV4-11; [10]): 50 nM; EC50 (MOLM-13; [12]): 18 nM; EC50 (CMK; [28]): 220 nM; EC50 (CMS; [29]): 6200 nM
,CN(C)C1CCN(C(=O)c2ccc(NC(=O)Nc3ccc(-c4nc(N5CCOCC5)nc(N5CCOCC5)n4)cc3)cc2)CC1 [PF-05212384],,,Inactive,,,Inactive,,Inactive,,,Inactive,"EC50 (U937; [25]): 24 nM; EC50 (MV4-11; [26]): 47 nM; EC50 (MOLM-13; [27]): 190 nM; EC50 (CMK; secondary high-throughput screen, read-out: average effective concentration, CMK): 7700 nM"
,Cc1ccc(C(=O)Nc2ccc(CN3CCN(C)CC3)c(C(F)(F)F)c2)cc1C#Cc1cnc2cccnn12 [PONATINIB],,,,,,,,,,,,"EC50 (U937; Homo sapiens, U-937, read-out: average effective concentration, U937): 2500 nM; EC50 (MV4-11; Homo sapiens, MV4-11, read-out: average effective concentration, MV4-11): 11 nM; EC50 (CHRF288-11; Homo sapiens, HTS, read-out: average effective concentration, CHRF288-11): 1000 nM; EC50 (CHRF288-11; read-out: average effective concentration, CHRF288-11): 980 nM; EC50 (MOLM-13; Homo sapiens, MOLM-13, read-out: average effective concentration, MOLM-13): 17 nM; EC50 (CMK; [28]): 1600 nM; EC50 (ML2; Homo sapiens, ML-2, read-out: average effective concentration, ML-2): 5300 nM; EC50 (M07e; Homo sapiens, M-07e, read-out: average effective concentration, M07e): 7000 nM; EC50 (CMS; [29]): 6700 nM"
,O=C(Nc1cc(Cl)cc2c1[nH]c1cnccc12)c1cccnc1 [PS-1145],Inactive,Inactive,Inactive,Inactive,Inactive,Inactive,,Inactive,,,Inactive,
,O=C1NC(=O)/C(=C/c2cccc(C(F)(F)F)c2)S1 [SMI-4A],Inactive,Inactive,Inactive,Inactive,Inactive,Inactive,,Inactive,,,Inactive,
,O=C([O-])Cc1ccccc1.[Na+] [SODIUM PHENYLACETATE],Inactive,Inactive,Inactive,,Inactive,Inactive,,Inactive,,,,"EC50 (MOLM-13; [27]): 2100 nM; average effective concentration, M07e (M07e; secondary high-throughput screen, […]): Inactive"
270 nM,CCN(CC)CCNC(=O)c1c(C)[nH]c(/C=C2\C(=O)Nc3ccc(F)cc32)c1C [SUNITINIB],,,,,,,460 nM,,490 nM,270 nM,,EC50 (MV4-11; [10]): 34 nM; EC50 (MOLM-13; [12]): 19 nM; EC50 (CMK; [13]): 330 nM; EC50 (CMS; [15]): > 10000 nM

SMILES,EC50 (U937; [9]),"average effective concentration, U937 (U937; [1])","average effective concentration, MV4-11 (MV4-11; [2])","average effective concentration, CHRF288-11 (CHRF288-11; [3])","average effective concentration, MOLM-13 (MOLM-13; [4])","average effective concentration, CMK (CMK; [5])","average effective concentration, ML-2 (ML2; [6])",EC50 (M07e; [7]),"average effective concentration, CMS (CMS; [8])",EC50 (CHRF288-11; [11]),EC50 (ML2; [14]),"average effective concentration, M07e (M07e; [24])",other results
CO[C@@]12[C@H](COC(N)=O)C3=C(C(=O)C(C)=C(N)C3=O)N1C[C@@H]1N[C@@H]12 [MITOMYCIN C],4400 nM,,,,,,,9400 nM,,750 nM,2400 nM,,EC50 (MV4-11; [10]): 4100 nM; EC50 (MOLM-13; [12]): 2800 nM; EC50 (CMK; [13]): 770 nM; EC50 (CMS; [15]): 10000 nM
"C[C@@H]1O[C@@H](O[C@H]2C[C@@H](O)[C@]3(CO)[C@H]4[C@H](O)C[C@]5(C)[C@@H](C6=CC(=O)OC6)CC[C@]5(O)[C@@H]4CC[C@]3(O)C2)[C@H](O)[C@H](O)[C@H]1O [Ouabain, reference compound]",41 nM,,,,,,,64 nM,,43 nM,31 nM,,EC50 (U937; [16]): 40 nM; EC50 (MV4-11; [17]): 40 nM; EC50 (MV4-11; [10]): 38 nM; EC50 (CHRF288-11; [18]): 40 nM; EC50 (MOLM-13; [19]): 30 nM; EC50 (CMK; [20]): 180 nM; EC50 (ML2; [21]): 30 nM; EC50 (M07e; [22]): 60 nM; EC50 (CMS; [15]): 46 nM; EC50 (CMS; [23]): 50 nM
COC(=O)[C@]1(C)CC[C@]2(C)CC[C@]3(C)C4=CC=C5C(=CC(=O)C(O)=C5C)[C@]4(C)CC[C@@]3(C)[C@@H]2C1 [PRISTIMERIN],800 nM,,Inactive,,Inactive,,,,,240 nM,120 nM,,"EC50 (CMK; [13]): 240 nM; EC50 (M07e; Homo sapiens, M-07e, secondary high-throughput screen, […], read-out: average effective concentration, M07e): 4600 nM; EC50 (CMS; [15]): 1500 nM"
